In patent US12152010B2, “Preparation method for photo-activatable aggregation-induced emission probe with in-situ generation capability” (South China University of Technology, priority 2018, dated 2024):

Legend:
[1] = Quantum yield, fluorescence lifetime, absorption and emission in tetrahydrofuran solution and solid (thin film) state; assay type: physicochemical; details: for Increase in fluorescence lifetime / Increase in quantum yield: thin film state relative to tetrahydrofuran solution
From the text: By measuring the quantum yield and fluorescence lifetime of compounds IV-1 (method 2-compound IV-1), IV-2 (method 2-compound IV-2) and IV-3 (method 2-compound IV-3) in tetrahydrofuran solution and solid state (thin film state)) (Table 1), the following results were found relative to the cases in the tetrahydrofuran solution: compound IV-1 in the thin film state increased by 94.4 times in the quantum yield, and increased by 6.0 times in the fluorescence lifetime; compound IV-2 in the thin film state increased by 33.4 times in the quantum yield, and increased by 5.2 times in the fluorescence lifetime; compound IV-3 in the thin film state increased by 25.8 times in the quantum yield, and increased by 4.1 times in the fluorescence lifetime; therefore, the aggregation-induced emission property of compound IV was confirmed. […] The in-situ compounds IV-1 to IV-3 also had the photophysical properties in Table 1.

[2] = Fluorescence emission in tetrahydrofuran/water or tetrahydrofuran/toluene mixed solutions (aggregation-induced emission); assay type: physicochemical; details: tetrahydrofuran:water (IV-1 509 nm, IV-2 570 nm) or tetrahydrofuran:toluene (IV-3 532 nm), 10^−5 mol/L
From the text: (§1) Mixing tetrahydrofuran and water according to different volume ratios (tetrahydrofuran:water=100:0, 90:10, 80:20, 70:30, 60:40, 50:50, 40:60, 30:70, 20:80, 10:90, 8:92, 6:94, 4:96, 2:98, 1:99) to form mixed solutions with different water contents; dissolving compound IV-1 (i.e., method 2-compound IV-1) into these mixed solutions to make the concentration of the compound at 10′ mol/L, and then detecting the fluorescence emission spectrum, with the results as shown in FIG. 1.
as §1, with “IV-2” for “IV-1”, “IV-2)” for “IV-1)”, “[…]” for “10′”, “2.” for “1.”
The in-situ generated compound IV-2 (in-situ compound IV-2) had the same photophysical properties as method 2-compound IV-2.
Mixing tetrahydrofuran and toluene according to different volume ratios (tetrahydrofuran:toluene=100:0, 90:10, 80:20, 70:30, 60:40, 50:50, 40:60, 30:70, 20:80, 10:90, 5:95, 1:99) to form mixed solutions with different toluene contents; dissolving compound IV-3 (i.e., method 2-compound IV-3) into these mixed solutions to make the concentration of the compound at […], and then detecting the fluorescence emission spectrum, with the results as shown in FIG. 3.
The in-situ generated compound IV-3 (in-situ compound IV-3) had the same photophysical properties as method 2-compound IV-3.

[3] = system: HeLa cells or MCF-7 cells; assay: Co-dyeing experiments with commercial organelle dyes; assay type: cell-based; details: co-dyeing with Nile Red, BODIPY493/503 or LysoTracker Red
HeLa cells [4] = assay: Photo-activatable fluorescence imaging under 405 nm laser in HeLa cells; assay type: cell-based; details: in-situ generated compound
HeLa cells [5] = assay: Photo-controlled high-spatiotemporal-resolution imaging, 780 nm two-photon laser, multicellular environment; assay type: cell-based; details: under photo-control
From the text: In-situ generated compound III could be used for photo-controlled high-spatiotemporal-resolution imaging. […] The photo-controlled high-spatiotemporal-resolution imaging capability of in-situ generated compound III was particularly useful for monitoring the movement of organelles and studying the physiological functions of organelles in complex physiological environments.

MCF-7 cells = assay: Photo-activatable fluorescence imaging under 405 nm laser in MCF-7 cells; assay type: cell-based; details: in-situ generated compound
[6] = tetrahydrofuran solution state (10^−5 mol/L)

SMILES | Emission wavelength ([1]; solid state) [nm] | Fluorescence lifetime ([1]; solid state) [ns] | Quantum yield ([1]; solid state) [%] | Absorption wavelength [1, 6] [nm] | Emission wavelength [1, 6] [nm] | Fluorescence lifetime [1, 6] [ns] | Quantum yield [1, 6] [%] | Increase in fluorescence lifetime [1] [times] | Increase in quantum yield [1] [times] | Ketoluminescence behaviour with increasing poor-solvent content [2] | Organelle specificity of photo-activatable fluorescence imaging [3] | Fluorescence intensity increase (HeLa cells [4]; scanning time 50 s) | Photo-controlled sequential activation of organelles in different cells (HeLa cells [5]) | Fluorescence intensity increase (MCF-7 cells; scanning time 50 s) | Fluorescence intensity increase (HeLa cells [4]; irradiation time 10 min) | Fluorescence intensity increase (MCF-7 cells; irradiation time 10 min)
Oc1ccccc1-c1nc2ccccc2s1 [Compound IV-1, 2-(benzo[d]thiazol-2-yl)phenol] | 509 | 4.96 | 66.1 | 334 | 452 | 0.83 | 0.7 | 6.0 | 94.4 | showing the aggregation-induced emission property |  |  |  |  |  | 
COc1ccc(O)c(-c2nc3ccccc3s2)c1 [Compound IV-2, 2-(benzo[d]thiazol-2-yl)-4-methoxyphenol] | 570 | 4.88 | 40.1 | 362 | 402 | 0.94 | 1.2 | 5.2 | 33.4 | showing the aggregation-induced emission property |  |  |  |  |  | 
Oc1ccc(CN2CCOCC2)cc1C1Nc2ccccc2S1 (centres unmarked) [Compound III-3, 2-(2,3-dihydrobenzo[d]thiazol-2-yl)-4-(morpholinomethyl)phenol] |  |  |  |  |  |  |  |  |  |  | lysosomal specific photo-activatable fluorescence imaging | approximately 6.2 times of the initial value | could sequentially activate lysosomes in different cells | ~4.5 times of the initial value |  | 
COc1ccc(O)c(C2Nc3ccccc3S2)c1 (centres unmarked) [Compound III-2, 2-(2,3-dihydrobenzo[d]thiazol-2-yl)-4-methoxyphenol] |  |  |  |  |  |  |  |  |  |  | lipid droplet specific photo-activatable fluorescence imaging |  | could sequentially activate lipid droplets in different cells |  | approximately 53 times of the initial value | ~18 times of the initial value
Oc1ccc(CN2CCOCC2)cc1-c1nc2ccccc2s1 [Compound IV-3, 2-(benzo[d]thiazol-2-yl)-4-(morpholinomethyl)phenol] | 532 | 6.39 | 28.4 | 341 | 445 | 1.56 | 1.1 | 4.1 | 25.8 | showing the aggregation-induced emission property |  |  |  |  |  | 
Oc1ccccc1C1Nc2ccccc2S1 (centres unmarked) [Compound III-1, 2-(2,3-dihydrobenzo[d]thiazol-2-yl)phenol] |  |  |  |  |  |  |  |  |  |  | lipid droplet specific photo-activatable fluorescence imaging |  |  |  | approximately 5.5 times of the initial value | ~9.0 times of the initial value
